What was measured:
[1] = molecular target: T1, CYP3A4 (Table 1); CYP3A (Homo sapiens, UniProt P08684); assay: time-dependent inactivation in human liver microsomes; type: biochemical; conditions: read-out: Parameters / K I
T1 construct: native enzyme in human liver microsomes
Excerpt: time-dependent inactivation in human liver microsomes on CYP3A4 (Table 1); CYP3A (text)

[2] = molecular target: T2, CYP2C19 (Homo sapiens, UniProt P33261); assay: CYP activity inhibition in human liver microsomes; type: biochemical; conditions: read-out: IC50 (μM) / Direct inhibition
T2 construct: native enzyme in human liver microsomes
T2 sequence (P33261 whole entry): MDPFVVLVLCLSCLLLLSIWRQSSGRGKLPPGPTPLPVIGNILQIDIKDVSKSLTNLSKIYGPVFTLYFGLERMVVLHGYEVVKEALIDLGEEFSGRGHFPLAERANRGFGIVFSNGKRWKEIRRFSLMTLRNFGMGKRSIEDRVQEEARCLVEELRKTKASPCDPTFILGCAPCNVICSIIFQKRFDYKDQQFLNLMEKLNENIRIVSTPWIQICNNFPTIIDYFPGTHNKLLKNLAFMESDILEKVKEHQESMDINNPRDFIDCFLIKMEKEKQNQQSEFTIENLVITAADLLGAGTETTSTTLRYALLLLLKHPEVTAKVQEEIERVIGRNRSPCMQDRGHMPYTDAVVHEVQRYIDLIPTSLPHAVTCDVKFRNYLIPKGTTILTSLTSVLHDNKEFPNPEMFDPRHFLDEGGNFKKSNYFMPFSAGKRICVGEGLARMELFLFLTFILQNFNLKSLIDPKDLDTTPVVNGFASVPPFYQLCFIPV
Excerpt: CYP activity inhibition in human liver microsomes on CYP2C19

[3] = molecular target: T3, CYP1A2 (Homo sapiens, UniProt P05177); assay: CYP activity inhibition in human liver microsomes; type: biochemical; conditions: read-out: IC50 (μM) / Direct inhibition
T3 construct: native enzyme in human liver microsomes
T3 sequence (P05177 2-516): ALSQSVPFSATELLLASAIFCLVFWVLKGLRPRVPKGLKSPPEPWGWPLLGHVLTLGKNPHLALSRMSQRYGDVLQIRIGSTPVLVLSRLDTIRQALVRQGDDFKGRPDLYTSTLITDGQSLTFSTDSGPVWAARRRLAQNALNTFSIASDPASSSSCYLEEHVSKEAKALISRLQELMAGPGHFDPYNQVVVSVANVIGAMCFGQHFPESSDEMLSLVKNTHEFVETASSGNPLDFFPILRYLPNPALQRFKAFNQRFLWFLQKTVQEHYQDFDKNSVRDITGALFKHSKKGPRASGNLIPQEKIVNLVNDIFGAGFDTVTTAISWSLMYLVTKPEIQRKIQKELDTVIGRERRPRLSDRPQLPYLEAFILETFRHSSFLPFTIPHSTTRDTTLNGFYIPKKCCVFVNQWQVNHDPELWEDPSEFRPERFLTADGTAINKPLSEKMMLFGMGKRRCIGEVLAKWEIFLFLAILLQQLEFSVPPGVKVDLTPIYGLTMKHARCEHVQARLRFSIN
Excerpt: CYP activity inhibition in human liver microsomes on CYP1A2

[4] = molecular target: T4, MATE2‐K (Homo sapiens, UniProt Q86VL8); assay: uptake inhibition in HEK293 cells expressing the transporter; type: cell-based
T4 construct: gene SLC47A2; expressed in HEK293 cells
T4 sequence (Q86VL8 1-566 isoform Q86VL8-3): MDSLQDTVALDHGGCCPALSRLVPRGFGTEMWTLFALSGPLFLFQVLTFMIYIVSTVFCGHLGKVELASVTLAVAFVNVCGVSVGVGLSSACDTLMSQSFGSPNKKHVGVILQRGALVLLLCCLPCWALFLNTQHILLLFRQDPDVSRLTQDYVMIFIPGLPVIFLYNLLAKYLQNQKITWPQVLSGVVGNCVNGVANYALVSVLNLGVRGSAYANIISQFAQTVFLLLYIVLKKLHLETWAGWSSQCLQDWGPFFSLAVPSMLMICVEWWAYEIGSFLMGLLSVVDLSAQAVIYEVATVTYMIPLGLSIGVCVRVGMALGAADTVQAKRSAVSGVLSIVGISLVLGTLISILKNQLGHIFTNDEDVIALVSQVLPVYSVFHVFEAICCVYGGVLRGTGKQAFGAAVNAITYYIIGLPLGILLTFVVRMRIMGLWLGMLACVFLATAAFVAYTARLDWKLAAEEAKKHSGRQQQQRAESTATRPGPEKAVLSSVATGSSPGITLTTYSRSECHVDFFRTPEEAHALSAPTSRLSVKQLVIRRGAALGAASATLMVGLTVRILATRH
Excerpt: uptake inhibition in HEK293 cells expressing the transporter on MATE2‐K

[5] = molecular target: T5, BCRP (breast cancer resistance protein) (Homo sapiens, UniProt Q9UNQ0); assay: transport inhibition in Caco-2 monolayers; type: cell-based
T5 construct: gene ABCG2; endogenous transporter in Caco-2 cell monolayers
T5 sequence (Q9UNQ0 1-655): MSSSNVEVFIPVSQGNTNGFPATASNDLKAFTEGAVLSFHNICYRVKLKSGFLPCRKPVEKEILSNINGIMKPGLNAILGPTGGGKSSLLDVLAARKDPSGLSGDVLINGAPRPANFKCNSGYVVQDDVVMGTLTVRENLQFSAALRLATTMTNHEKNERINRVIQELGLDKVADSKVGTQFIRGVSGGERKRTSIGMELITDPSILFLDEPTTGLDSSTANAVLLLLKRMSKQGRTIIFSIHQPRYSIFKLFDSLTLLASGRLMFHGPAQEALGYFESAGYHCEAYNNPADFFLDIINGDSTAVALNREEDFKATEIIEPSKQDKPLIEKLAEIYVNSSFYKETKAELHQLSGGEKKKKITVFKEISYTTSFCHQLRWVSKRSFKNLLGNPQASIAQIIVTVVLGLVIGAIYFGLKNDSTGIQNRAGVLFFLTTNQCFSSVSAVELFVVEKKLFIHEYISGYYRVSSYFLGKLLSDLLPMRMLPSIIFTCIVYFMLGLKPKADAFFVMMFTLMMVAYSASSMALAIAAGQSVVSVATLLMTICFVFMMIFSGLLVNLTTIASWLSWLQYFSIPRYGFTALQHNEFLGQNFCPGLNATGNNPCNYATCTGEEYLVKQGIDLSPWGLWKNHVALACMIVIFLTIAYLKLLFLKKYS
Excerpt: transport inhibition in Caco-2 monolayers on BCRP (breast cancer resistance protein)

[6] = molecular target: T6, UGT1A1 (Homo sapiens, UniProt P22309); assay: glucuronidation inhibition in human liver microsomes; type: biochemical; conditions: substrate beta-estradiol, competitive
T6 construct: native enzyme in human liver microsomes
T6 sequence (P22309 26-533): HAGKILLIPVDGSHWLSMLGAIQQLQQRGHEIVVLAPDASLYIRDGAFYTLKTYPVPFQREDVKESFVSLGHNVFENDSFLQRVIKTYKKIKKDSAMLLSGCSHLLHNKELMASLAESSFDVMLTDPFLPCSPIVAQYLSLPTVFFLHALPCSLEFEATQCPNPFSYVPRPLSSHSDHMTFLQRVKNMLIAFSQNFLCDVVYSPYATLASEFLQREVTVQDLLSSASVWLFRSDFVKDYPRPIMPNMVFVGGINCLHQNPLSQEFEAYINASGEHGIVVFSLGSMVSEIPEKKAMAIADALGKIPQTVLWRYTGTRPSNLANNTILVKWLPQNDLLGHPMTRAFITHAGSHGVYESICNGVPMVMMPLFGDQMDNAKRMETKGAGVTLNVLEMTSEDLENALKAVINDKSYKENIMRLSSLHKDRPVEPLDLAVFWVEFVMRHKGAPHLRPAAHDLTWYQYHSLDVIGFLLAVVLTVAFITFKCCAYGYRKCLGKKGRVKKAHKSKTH
Excerpt: glucuronidation inhibition in human liver microsomes on UGT1A1

[7] = molecular target: T7, P‐gp (P‐glycoprotein) (Homo sapiens, UniProt P08183); assay: transport inhibition in Caco-2 monolayers; type: cell-based
T7 construct: gene ABCB1; endogenous transporter in Caco-2 cell monolayers
T7 sequence (P08183 whole entry): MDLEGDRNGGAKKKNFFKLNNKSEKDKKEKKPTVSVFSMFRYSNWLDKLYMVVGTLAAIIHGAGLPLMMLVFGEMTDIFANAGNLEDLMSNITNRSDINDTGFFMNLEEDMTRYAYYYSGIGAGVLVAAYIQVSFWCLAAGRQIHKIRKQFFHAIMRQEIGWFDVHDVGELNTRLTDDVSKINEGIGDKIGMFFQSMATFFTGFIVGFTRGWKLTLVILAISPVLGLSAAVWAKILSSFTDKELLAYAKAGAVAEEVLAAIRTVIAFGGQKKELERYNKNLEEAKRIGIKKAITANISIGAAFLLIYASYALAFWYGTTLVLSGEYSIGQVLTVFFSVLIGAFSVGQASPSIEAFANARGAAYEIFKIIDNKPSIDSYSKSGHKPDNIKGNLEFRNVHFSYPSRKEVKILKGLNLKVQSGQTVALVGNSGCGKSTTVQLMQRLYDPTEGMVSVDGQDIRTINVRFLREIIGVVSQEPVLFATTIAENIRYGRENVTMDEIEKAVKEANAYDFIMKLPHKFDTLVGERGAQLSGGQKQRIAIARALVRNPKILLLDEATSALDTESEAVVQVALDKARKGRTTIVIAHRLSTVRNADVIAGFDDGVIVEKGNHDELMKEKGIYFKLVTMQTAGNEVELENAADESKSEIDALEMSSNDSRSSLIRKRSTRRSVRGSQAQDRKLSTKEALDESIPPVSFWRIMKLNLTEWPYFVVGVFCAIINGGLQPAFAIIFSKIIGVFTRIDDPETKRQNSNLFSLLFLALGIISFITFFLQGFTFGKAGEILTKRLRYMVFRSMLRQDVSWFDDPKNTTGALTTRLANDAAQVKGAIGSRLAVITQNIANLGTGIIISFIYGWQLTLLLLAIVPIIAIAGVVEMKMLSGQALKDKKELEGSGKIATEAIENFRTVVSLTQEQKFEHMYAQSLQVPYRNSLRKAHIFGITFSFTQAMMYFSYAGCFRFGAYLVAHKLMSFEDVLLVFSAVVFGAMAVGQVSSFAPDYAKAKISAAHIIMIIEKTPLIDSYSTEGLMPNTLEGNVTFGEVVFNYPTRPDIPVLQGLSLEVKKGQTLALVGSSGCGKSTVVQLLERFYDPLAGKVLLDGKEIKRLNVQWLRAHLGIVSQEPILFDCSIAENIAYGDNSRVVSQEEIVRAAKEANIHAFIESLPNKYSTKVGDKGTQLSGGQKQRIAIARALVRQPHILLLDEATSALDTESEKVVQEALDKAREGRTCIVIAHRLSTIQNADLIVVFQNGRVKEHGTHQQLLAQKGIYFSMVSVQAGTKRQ
Excerpt: transport inhibition in Caco-2 monolayers on P‐gp (P‐glycoprotein)

[8] = molecular target: T8, UGT1A3 (Homo sapiens, UniProt P35503); assay: glucuronidation inhibition in human liver microsomes; type: biochemical; conditions: substrate chenodeoxycholic acid; direct inhibition
T8 construct: native enzyme in human liver microsomes
T8 sequence (P35503 29-534): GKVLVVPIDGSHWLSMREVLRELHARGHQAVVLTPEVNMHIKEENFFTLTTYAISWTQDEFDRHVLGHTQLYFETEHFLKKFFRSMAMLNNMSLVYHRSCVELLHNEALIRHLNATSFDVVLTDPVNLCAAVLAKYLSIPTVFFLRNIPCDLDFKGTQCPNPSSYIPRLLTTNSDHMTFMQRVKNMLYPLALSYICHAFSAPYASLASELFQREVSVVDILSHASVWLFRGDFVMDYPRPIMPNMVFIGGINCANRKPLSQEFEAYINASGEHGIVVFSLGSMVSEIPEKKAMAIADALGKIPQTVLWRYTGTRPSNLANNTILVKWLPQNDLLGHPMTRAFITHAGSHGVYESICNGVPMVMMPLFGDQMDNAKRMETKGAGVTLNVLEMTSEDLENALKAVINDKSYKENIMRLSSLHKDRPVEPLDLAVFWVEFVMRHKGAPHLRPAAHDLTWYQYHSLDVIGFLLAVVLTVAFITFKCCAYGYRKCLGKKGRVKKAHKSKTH
Excerpt: glucuronidation inhibition in human liver microsomes on UGT1A3

T1 sequence (P08684 2-503): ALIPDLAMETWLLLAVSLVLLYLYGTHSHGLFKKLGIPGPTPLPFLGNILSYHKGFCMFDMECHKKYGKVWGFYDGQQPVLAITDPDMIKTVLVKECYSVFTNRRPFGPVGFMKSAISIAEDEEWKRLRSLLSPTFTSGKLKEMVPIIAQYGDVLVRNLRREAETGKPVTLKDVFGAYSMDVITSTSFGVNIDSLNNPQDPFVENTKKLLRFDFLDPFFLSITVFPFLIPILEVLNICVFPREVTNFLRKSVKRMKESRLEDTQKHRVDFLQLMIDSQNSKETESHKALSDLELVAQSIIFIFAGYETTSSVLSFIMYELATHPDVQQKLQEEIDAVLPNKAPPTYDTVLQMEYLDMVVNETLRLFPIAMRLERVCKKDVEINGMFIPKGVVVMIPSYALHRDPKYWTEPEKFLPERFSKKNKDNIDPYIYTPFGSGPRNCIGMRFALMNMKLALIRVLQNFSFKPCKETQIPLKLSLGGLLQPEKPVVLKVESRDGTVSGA

- KI (inactivation) [1]: 64.1 µM
- IC50 [2]: 23.4 µM
- IC50 [3]: > 100 µM
- IC50 [4]: > 27.4 µM
- IC50 [5]: 467 nM
- Ki ([6]; read-out: Parameters / K i): 1190 nM
- IC50 ([6]; direct inhibition): 1.45 µM
- IC50 [7]: 349 nM
- IC50 [8]: 22.6 µM
SMILES: COC[C@H]1CN(C(=O)[C@]2(F)CN(C3CCCC3)C[C@H]2c2ccc(OC)cc2)C[C@@H]1c1ccc(C(F)(F)F)cc1N1CCC(C(=O)O)CC1 [dersimelagon]
